Test results reported in US20240376163A1, “PEPTIDE FOR INHIBITING CALCINEURIN AND USE THEREOF” (Seoul National University R&DB Foundation, priority 2023, published 2024).

Tested on: Jurkat T cells
Assay: mRNA sequencing of activated Jurkat T cells
Assay type: cell-based, human

Sequence: PEITVTPPTP [CABIN1-L-1-2]
- CRIM1 FPKM (P + I): 0.333 FPKM
- CRTAM FPKM (P + I): 9.51 FPKM
- CSF1 FPKM (P + I): 2.594 FPKM
- CSF2 FPKM (P + I): 0.314 FPKM
- CST7 FPKM (P + I): 3.175 FPKM
- CXCL8 FPKM (P + I): 3.327 FPKM
- CXCR3 FPKM (P + I): 1.803 FPKM
- DSTYK FPKM (P + I): 3.595 FPKM
- FBXO34 FPKM (P + I): 18.386 FPKM
- FMNL2 FPKM (P + I): 3.019 FPKM
- FOSL2 FPKM (P + I): 2.362 FPKM
- FOXO1 FPKM (P + I): 3.736 FPKM
- FXYD5 FPKM (P + I): 42.856 FPKM
- FYN FPKM (P + I): 15.512 FPKM
- GFOD1 FPKM (P + I): 6.312 FPKM
- GRK5 FPKM (P + I): 8.975 FPKM
- GTDC1 FPKM (P + I): 5.144 FPKM
- IL2 FPKM (P + I): 12.964 FPKM
- IL3 FPKM (P + I): 6.298 FPKM
- IL21R FPKM (P + I): 5.255 FPKM
- IL21R-AS1 FPKM (P + I): 3.991 FPKM
- IQCJ-SCHIP1 FPKM (P + I): 1.234 FPKM
- IRF4 FPKM (P + I): 2.092 FPKM
- IRF8 FPKM (P + I): 1.914 FPKM
- ISM1 FPKM (P + I): 3.737 FPKM
- JAK2 FPKM (P + I): 8.45 FPKM
- KCNK1 FPKM (P + I): 13.139 FPKM
- KCNK5 FPKM (P + I): 4.904 FPKM
- LAMP3 FPKM (P + I): 9.828 FPKM
- LAX1 FPKM (P + I): 7.578 FPKM
- LIF FPKM (P + I): 0.231 FPKM
- LOC729603 FPKM (P + I): 3.329 FPKM
- LRRC8B FPKM (P + I): 4.298 FPKM
- LTBP4 FPKM (P + I): 9.568 FPKM
- MAP2K3 FPKM (P + I): 43.237 FPKM
- MIR6775 FPKM (P + I): 21.57 FPKM
- MIR6821 FPKM (P + I): 25.116 FPKM
- MYO1D FPKM (P + I): 5.995 FPKM
- NDFIP1 FPKM (P + I): 24.432 FPKM
- NFATC1 FPKM (P + I): 3.916 FPKM
- NPDC1 FPKM (P + I): 5.64 FPKM
- NR4A2 FPKM (P + I): 0.356 FPKM
- NTRK1 FPKM (P + I): 1.657 FPKM
- PAM FPKM (P + I): 1.934 FPKM
- PDGFA FPKM (P + I): 8.169 FPKM
- PELI1 FPKM (P + I): 8.465 FPKM
- PHACTR2 FPKM (P + I): 2.791 FPKM
- PHEX FPKM (P + I): 0.786 FPKM
- PIM3 FPKM (P + I): 72.895 FPKM
- PKIA FPKM (P + I): 18.138 FPKM
- PLK3 FPKM (P + I): 7.036 FPKM
- PLS3 FPKM (P + I): 0.37 FPKM
- POU2AF1 FPKM (P + I): 2.971 FPKM
- PPIF FPKM (P + I): 106.533 FPKM
- PTPN6 FPKM (P + I): 20.806 FPKM
- PTPN22 FPKM (P + I): 5.119 FPKM
- RDH10 FPKM (P + I): 5.524 FPKM
- REL FPKM (P + I): 5.699 FPKM
- RGS16 FPKM (P + I): 5.595 FPKM
- SCHIP1 FPKM (P + I): 1.333 FPKM
- SERPINB2 FPKM (P + I): 14.103 FPKM
- SHC4 FPKM (P + I): 0.686 FPKM
- SLAMF1 FPKM (P + I): 0.275 FPKM
- SLC35E4 FPKM (P + I): 1.517 FPKM
- SORBS1 FPKM (P + I): 0.511 FPKM
- SPRY1 FPKM (P + I): 4.901 FPKM
- STAT5A FPKM (P + I): 3.055 FPKM
- TAGAP FPKM (P + I): 8.731 FPKM
- TBC1D4 FPKM (P + I): 13.191 FPKM
- TBC1D20 FPKM (P + I): 18.427 FPKM
- TDRD9 FPKM (P + I): 1.888 FPKM
- TIAM2 FPKM (P + I): 0.301 FPKM
- TM4SF1 FPKM (P + I): 0.907 FPKM
- TNFRSF4 FPKM (P + I): 11.916 FPKM
- TNFSF9 FPKM (P + I): 2.651 FPKM
- TNFSF14 FPKM (P + I): 4.255 FPKM
- TNS3 FPKM (P + I): 1.418 FPKM
- VAMP1 FPKM (P + I): 14.752 FPKM
- XCL1 FPKM (P + I): 1.144 FPKM
- XCL2 FPKM (P + I): 2.074 FPKM
- ZNF704 FPKM (P + I): 0.183 FPKM
- ZNF827 FPKM (P + I): 1.372 FPKM
- ABCB10 FPKM (P+I): 9.751 FPKM
- ACTG1 FPKM (P+I): 799.981 FPKM
- ADAM19 FPKM (P+I): 4.257 FPKM
- ADD3 FPKM (P+I): 9.536 FPKM
- ADORA2B FPKM (P+I): 6.969 FPKM
- AGO2 FPKM (P+I): 14.51 FPKM
- AIM1 FPKM (P+I): 27.486 FPKM
- APOBEC3A_B FPKM (P+I): 14.665 FPKM
- APOBEC3B FPKM (P+I): 59.895 FPKM
- APOBEC3C FPKM (P+I): 14.323 FPKM
- APOBEC3D FPKM (P+I): 8.981 FPKM
- APOL2 FPKM (P+I): 102.003 FPKM
- APOL6 FPKM (P+I): 46.762 FPKM
- AQP3 FPKM (P+I): 52.98 FPKM
- ARAP2 FPKM (P+I): 13.458 FPKM
- ARC FPKM (P+I): 10.186 FPKM
- ARHGAP23 FPKM (P+I): 1.985 FPKM
